This note sets out measurements from paper doi:10.1101/520460v1, “Chromokinesins NOD and KID Use Distinct ATPase Mechanisms and Microtubule Interactions to Perform a Similar Function” (biorxiv, 2019).

The experiment addresses T1, KID (Homo sapiens, UniProt Q14807).
T1 construct: gene KIF22; Glu-C V8 protease added in crystallization
T1 sequence (Q14807 40-400): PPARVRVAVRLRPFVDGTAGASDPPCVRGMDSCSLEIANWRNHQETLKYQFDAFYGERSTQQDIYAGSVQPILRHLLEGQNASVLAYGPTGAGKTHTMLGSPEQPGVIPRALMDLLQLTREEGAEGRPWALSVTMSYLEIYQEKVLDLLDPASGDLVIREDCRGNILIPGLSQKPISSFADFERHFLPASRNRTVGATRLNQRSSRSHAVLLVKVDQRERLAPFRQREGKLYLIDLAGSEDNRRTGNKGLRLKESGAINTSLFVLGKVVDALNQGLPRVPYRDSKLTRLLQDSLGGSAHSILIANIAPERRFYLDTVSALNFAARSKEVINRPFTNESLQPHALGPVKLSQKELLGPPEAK
Kind of experiment: X-ray crystal structure of the complex. The experiment is classed as binding. The note with it: crystals from 3.2 M NaCl, 0.1 M Tris pH 8.5, 291 K, 5 molar fold MgADP.

`Nc1ncnc2c1ncn2[C@@H]1O[C@H](COP(=O)(O)OP(=O)(O)O)[C@@H](O)[C@H]1O` [ADP]: the “X-ray crystal structure of the complex” value is listed as “We solved the X-ray crystal structure of the KID catalytic domain in the ADP state”.
